1 compound from article PMC6934184, “Selective DNA-PKcs inhibition extends the therapeutic index of localized radiotherapy and chemotherapy” (The Journal of Clinical Investigation, 2019) can be followed below.

The assay addresses T1, FGFR3 K650M (Homo sapiens, UniProt P22607, K650M).
T1 construct: purchased Thermo Fisher Scientific (Life Technologies) SelectScreen
Put plainly: SelectScreen LanthaScreen. In kind it is binding. The note with it: read-out: % displacement. In a few lines: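 SelectScreen broad panel; activity (Z'LYTE, Adapta) plus binding formats. ATP: Km app for CSF1R Z'LYTE; 10 for CAMK1 Adapta. Readout = % per kinase.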

T1 sequence (P22607 23-806 K650M): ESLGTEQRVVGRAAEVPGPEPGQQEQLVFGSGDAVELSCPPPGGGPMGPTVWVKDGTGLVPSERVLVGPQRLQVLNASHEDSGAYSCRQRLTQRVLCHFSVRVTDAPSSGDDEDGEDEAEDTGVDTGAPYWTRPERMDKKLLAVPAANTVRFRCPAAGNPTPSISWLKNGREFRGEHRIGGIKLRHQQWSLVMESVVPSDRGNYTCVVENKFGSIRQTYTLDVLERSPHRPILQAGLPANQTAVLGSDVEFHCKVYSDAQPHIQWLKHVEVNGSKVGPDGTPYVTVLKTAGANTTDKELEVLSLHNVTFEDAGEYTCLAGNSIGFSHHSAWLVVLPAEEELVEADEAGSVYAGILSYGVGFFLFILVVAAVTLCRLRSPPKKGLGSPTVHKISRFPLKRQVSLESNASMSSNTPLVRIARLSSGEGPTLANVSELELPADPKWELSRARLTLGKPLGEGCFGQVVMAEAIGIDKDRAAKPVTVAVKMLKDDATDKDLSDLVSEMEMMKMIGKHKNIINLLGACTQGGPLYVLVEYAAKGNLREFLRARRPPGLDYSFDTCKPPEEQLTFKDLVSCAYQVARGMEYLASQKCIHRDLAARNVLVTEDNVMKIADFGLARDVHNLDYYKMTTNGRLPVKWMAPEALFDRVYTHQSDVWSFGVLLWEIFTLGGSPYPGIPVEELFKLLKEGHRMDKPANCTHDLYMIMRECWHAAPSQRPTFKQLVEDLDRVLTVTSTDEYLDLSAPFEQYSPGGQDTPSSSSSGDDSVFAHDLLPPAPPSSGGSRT

Consider `CN(C(=O)CN1CCOCC1)c1ccc2sc3c(-c4cccc5c(=O)cc(N6CC7CCC(C6)O7)oc45)cccc3c2c1` [NU5455], for which the inhibition at 1 µM came to 16.5%.
